From patent US20240317711A1, “AURKA SELECTIVE DEGRADATION INDUCING COMPOUND” (UPPTHERA INC., priority 2021, published 2024)

Target: T1, AURKA (Homo sapiens, UniProt O14965)
T1 construct: An MDA-MB-231 cell line was purchased from the Korea Cell Line Bank; endogenous in cells; host or cells: MDA-MB-231
T1 sequence (O14965 1-403): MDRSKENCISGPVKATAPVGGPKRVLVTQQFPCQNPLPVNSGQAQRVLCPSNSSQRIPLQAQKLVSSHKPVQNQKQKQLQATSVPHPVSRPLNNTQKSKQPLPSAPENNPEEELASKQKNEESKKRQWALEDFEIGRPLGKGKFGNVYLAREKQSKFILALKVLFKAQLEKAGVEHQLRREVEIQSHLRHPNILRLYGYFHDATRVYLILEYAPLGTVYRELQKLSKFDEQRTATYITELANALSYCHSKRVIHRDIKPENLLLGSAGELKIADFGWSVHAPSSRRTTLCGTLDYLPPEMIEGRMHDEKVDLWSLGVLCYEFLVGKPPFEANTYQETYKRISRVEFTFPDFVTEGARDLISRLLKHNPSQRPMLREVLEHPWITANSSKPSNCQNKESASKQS
Experiment: Western blotting of AURKA degradation after 24 hours of compound treatment of MDA-MB-231 cell line
Assay type: cell-based
Conditions: compound 0.1 μM, MDA-MB-231 cells, Western blot
Excerpt: An MDA-MB-231 cell line was purchased from the Korea Cell Line Bank. The passage of cultured cells was maintained within P50.
For cell counting, a cell counter (Catalog #AMQAX1000) from Thermo and a 0.4% Trypan blue solution were used.
For cell culture, there were used RPMI (Gibco, Cat. No. 22400-089; Lot. No. 2323633), FBS (Gibco, Cat. No. 16000044; Lot. No. 2454168P), Penicillin/Streptomycin (PS) (Gibco, Cat. No. 15140-122; Lot. No. 2321150), 100 mm culture plate (SPL, Cat. No. 20100), 6-well culture plate (SPL, Cat. No. 30006), PBS pH7.4 (Gibco, Cat. No. 10010-023; Lot. No. 2380329), counting chamber (Hematocytometer) (Hirschmann, Cat. No. 8100204), and 0.4% trypan blue solution (DYNEBIO, Cat. No. CBT3710; Lot. No. 20211201).
3×10^5 cells were seeded in each well of a 12-well plate (SPL), and the cells were cultured in a total culture medium volume of 1 mL. […]
Next, a standard curve was obtained using the BCA assay and the protein mass in the lysate was quantified by substituting the obtained standard curve. The mixture was incubated at 37° C. for 30 minutes using 20 μL of a standard or sample solution and 200 μL of a BCA or Bradford solution, and absorbance was measured at 562 nm. […]

AURKA protein degradation activity: ≥ 95%
SMILES: O=C1CCC(N2C(=O)c3cccc(NCCCCCCN4CCN(C(=O)Cc5ccc(Nc6ncc(F)c(Nc7ccc(C(=O)Nc8ccccc8Cl)cc7)n6)cc5)CC4)c3C2=O)C(=O)N1 (stereo not shown) [Compound 14]
